Paper PMC2789381, “Voltage-Dependent Modulation of Cardiac Ryanodine Receptors (RyR2) by Protamine” (PLoS ONE, 2009)
“And” between values parts separate entries of the source, which are not always exact repeats. Identical values can stand only once.

Biological target: T1, cardiac RyR2 (Sus scrofa, UniProt A0A5G2R1W3)
T1 construct: from tissue; host or cells: pig heart ventricle (sarcoplasmic reticulum microsomes)
Experiment: Single-channel recordings of RyR2 reconstituted into planar lipid bilayers
Type: biochemical, pig
Settings: for dwell time of ryanodol-induced events: Vm = +20 mV, n = 7, mean±SEM; for dwell time of ryanodol-induced events / slope conductance of the induced substate (I-V curve): SEM; for substate current level as % of the current through the full open channel / substate current level as % of the full open current: 1 µg/ml protamine, 10 µM ryanodol or 50 nM IpTxA, 10 µM cytosolic Ca2+/5 mM caffeine; for substate current level as % of the full open current: Vm = +40 mV; for slope conductance of the induced substate (I-V curve): fully active RyR2 (10 µM Ca2+/5 mM caffeine), full open state 129±1 pS, n = 10 protamine, 13 ryanodol, 5 IpTxA, mean±SEM
Source text: All procedures with animals were designed to minimize pain and suffering and conformed to the guidelines of the National Institutes of Health. The committee on the Use and Care of Laboratory Animals of Southern Illinois University School of Medicine reviewed and approved the protocols for animal use. Sarcoplasmic reticulum (SR) microsomes were obtained from pig heart ventricle using heart homogenization and ultracentrifugation steps that follow the procedures published by Chamberlain et al.. SR pellets obtained after high speed centrifugation were resuspended in 290 mM sucrose - 5 mM Imidazole buffer (pH = 7) and were aliquoted in cryovials (300 µl each) and kept in liquid nitrogen (better and safer long-term storage). Every month, a few cryovials are used to generate smaller aliquots of membranes (15 µl each) which were stored at –80°C for easy access. For experiments, aliquots were quickly thawed in water, kept on ice and used within 3–5 hours.
Reconstitution of RyR2 in planar lipid bilayers, was performed as previously described. Briefly, planar lipid bilayers were formed on 80 to 100 µm-diameter circular holes in teflon septa, separating two 1.3 ml compartments. The trans compartment was filled with HEPES-Ca^2+ solution containing HEPES 250 mM and Ca(OH)2 53 mM, pH 7.4. The trans compartment was clamped at 0 mV using an Axopatch 200B patch-clamp amplifier (Axon Instruments, Foster City, CA). The cis compartment (ground) was filled with HEPES-Tris solution containing HEPES 250 mM and TrisOH 118 mM, pH 7.4. Bilayers of a 5∶4∶1 mixture of bovine brain phosphatidylethanolamine, phosphatidylserine and phosphatidylcholine (45–50 mg/ml in decane) were painted onto the holes of teflon septa from the cis side. Sarcoplasmic reticulum microsomes (5–15 µg) were then added to the cis solution followed by 500–1000 mM CsCl and 1 mM CaCl2 to promote vesicle fusion. After RyR currents (or Cl^− currents >100 pA at 0 mV) were observed, the cis chamber was perfused with HEPES-TRIS solution for 5 min at 4 ml/min. A mixture of BAPTA and dibromo-BAPTA was used to buffer free [Ca^2+] on the cytosolic surface of the channel ([Ca^2+]cyt). As previously done, RyR channels were identified by current amplitudes (∼3.5 pA at 0 mV), slope conductance (∼100 pS), reversal potential (∼−45 mV, trans - cis) and response to diagnostic ligands (e.g., ryanodine, Ca^2+, ATP, caffeine and Ruthenium Red). RyR channel currents are depicted as positive (upward deflections of the current) in figures and reflect cation flux from the trans (lumenal) to the cis (cytosolic) compartment. Membrane voltages always represent the difference between trans - cis compartments (in mV).
Channel currents were first filtered through the Axopatch 200B low-pass Bessel filter at 2 kHz, digitized at 20 kHz with an analog to digital converter (Digidata 1320, Axon Instruments) and stored on DVD. Recordings were analyzed using pClamp9 software (Axon Instruments). Analysis with this program included open times, closed times and open probabilities (Po), which were determined by half-amplitude threshold analysis of single-channel recordings as done before.
Recordings were digitally filtered at 500 Hz in order to estimate the probabilities of substates using two different methods:
Frame by frame analysis (100 ms/frame) was performed using pClamp9 on each 4-min recording. […] The parameters (mean amplitude and duration) of each event were collected and averaged. The probability of substate occurrence, Psubstate, was estimated from the ratio: time spent in substate/total recording time. Pfull open was estimated as the fraction of time spent in the maximal current level (full opening).

T1 sequence (A0A5G2R1W3 20-4900): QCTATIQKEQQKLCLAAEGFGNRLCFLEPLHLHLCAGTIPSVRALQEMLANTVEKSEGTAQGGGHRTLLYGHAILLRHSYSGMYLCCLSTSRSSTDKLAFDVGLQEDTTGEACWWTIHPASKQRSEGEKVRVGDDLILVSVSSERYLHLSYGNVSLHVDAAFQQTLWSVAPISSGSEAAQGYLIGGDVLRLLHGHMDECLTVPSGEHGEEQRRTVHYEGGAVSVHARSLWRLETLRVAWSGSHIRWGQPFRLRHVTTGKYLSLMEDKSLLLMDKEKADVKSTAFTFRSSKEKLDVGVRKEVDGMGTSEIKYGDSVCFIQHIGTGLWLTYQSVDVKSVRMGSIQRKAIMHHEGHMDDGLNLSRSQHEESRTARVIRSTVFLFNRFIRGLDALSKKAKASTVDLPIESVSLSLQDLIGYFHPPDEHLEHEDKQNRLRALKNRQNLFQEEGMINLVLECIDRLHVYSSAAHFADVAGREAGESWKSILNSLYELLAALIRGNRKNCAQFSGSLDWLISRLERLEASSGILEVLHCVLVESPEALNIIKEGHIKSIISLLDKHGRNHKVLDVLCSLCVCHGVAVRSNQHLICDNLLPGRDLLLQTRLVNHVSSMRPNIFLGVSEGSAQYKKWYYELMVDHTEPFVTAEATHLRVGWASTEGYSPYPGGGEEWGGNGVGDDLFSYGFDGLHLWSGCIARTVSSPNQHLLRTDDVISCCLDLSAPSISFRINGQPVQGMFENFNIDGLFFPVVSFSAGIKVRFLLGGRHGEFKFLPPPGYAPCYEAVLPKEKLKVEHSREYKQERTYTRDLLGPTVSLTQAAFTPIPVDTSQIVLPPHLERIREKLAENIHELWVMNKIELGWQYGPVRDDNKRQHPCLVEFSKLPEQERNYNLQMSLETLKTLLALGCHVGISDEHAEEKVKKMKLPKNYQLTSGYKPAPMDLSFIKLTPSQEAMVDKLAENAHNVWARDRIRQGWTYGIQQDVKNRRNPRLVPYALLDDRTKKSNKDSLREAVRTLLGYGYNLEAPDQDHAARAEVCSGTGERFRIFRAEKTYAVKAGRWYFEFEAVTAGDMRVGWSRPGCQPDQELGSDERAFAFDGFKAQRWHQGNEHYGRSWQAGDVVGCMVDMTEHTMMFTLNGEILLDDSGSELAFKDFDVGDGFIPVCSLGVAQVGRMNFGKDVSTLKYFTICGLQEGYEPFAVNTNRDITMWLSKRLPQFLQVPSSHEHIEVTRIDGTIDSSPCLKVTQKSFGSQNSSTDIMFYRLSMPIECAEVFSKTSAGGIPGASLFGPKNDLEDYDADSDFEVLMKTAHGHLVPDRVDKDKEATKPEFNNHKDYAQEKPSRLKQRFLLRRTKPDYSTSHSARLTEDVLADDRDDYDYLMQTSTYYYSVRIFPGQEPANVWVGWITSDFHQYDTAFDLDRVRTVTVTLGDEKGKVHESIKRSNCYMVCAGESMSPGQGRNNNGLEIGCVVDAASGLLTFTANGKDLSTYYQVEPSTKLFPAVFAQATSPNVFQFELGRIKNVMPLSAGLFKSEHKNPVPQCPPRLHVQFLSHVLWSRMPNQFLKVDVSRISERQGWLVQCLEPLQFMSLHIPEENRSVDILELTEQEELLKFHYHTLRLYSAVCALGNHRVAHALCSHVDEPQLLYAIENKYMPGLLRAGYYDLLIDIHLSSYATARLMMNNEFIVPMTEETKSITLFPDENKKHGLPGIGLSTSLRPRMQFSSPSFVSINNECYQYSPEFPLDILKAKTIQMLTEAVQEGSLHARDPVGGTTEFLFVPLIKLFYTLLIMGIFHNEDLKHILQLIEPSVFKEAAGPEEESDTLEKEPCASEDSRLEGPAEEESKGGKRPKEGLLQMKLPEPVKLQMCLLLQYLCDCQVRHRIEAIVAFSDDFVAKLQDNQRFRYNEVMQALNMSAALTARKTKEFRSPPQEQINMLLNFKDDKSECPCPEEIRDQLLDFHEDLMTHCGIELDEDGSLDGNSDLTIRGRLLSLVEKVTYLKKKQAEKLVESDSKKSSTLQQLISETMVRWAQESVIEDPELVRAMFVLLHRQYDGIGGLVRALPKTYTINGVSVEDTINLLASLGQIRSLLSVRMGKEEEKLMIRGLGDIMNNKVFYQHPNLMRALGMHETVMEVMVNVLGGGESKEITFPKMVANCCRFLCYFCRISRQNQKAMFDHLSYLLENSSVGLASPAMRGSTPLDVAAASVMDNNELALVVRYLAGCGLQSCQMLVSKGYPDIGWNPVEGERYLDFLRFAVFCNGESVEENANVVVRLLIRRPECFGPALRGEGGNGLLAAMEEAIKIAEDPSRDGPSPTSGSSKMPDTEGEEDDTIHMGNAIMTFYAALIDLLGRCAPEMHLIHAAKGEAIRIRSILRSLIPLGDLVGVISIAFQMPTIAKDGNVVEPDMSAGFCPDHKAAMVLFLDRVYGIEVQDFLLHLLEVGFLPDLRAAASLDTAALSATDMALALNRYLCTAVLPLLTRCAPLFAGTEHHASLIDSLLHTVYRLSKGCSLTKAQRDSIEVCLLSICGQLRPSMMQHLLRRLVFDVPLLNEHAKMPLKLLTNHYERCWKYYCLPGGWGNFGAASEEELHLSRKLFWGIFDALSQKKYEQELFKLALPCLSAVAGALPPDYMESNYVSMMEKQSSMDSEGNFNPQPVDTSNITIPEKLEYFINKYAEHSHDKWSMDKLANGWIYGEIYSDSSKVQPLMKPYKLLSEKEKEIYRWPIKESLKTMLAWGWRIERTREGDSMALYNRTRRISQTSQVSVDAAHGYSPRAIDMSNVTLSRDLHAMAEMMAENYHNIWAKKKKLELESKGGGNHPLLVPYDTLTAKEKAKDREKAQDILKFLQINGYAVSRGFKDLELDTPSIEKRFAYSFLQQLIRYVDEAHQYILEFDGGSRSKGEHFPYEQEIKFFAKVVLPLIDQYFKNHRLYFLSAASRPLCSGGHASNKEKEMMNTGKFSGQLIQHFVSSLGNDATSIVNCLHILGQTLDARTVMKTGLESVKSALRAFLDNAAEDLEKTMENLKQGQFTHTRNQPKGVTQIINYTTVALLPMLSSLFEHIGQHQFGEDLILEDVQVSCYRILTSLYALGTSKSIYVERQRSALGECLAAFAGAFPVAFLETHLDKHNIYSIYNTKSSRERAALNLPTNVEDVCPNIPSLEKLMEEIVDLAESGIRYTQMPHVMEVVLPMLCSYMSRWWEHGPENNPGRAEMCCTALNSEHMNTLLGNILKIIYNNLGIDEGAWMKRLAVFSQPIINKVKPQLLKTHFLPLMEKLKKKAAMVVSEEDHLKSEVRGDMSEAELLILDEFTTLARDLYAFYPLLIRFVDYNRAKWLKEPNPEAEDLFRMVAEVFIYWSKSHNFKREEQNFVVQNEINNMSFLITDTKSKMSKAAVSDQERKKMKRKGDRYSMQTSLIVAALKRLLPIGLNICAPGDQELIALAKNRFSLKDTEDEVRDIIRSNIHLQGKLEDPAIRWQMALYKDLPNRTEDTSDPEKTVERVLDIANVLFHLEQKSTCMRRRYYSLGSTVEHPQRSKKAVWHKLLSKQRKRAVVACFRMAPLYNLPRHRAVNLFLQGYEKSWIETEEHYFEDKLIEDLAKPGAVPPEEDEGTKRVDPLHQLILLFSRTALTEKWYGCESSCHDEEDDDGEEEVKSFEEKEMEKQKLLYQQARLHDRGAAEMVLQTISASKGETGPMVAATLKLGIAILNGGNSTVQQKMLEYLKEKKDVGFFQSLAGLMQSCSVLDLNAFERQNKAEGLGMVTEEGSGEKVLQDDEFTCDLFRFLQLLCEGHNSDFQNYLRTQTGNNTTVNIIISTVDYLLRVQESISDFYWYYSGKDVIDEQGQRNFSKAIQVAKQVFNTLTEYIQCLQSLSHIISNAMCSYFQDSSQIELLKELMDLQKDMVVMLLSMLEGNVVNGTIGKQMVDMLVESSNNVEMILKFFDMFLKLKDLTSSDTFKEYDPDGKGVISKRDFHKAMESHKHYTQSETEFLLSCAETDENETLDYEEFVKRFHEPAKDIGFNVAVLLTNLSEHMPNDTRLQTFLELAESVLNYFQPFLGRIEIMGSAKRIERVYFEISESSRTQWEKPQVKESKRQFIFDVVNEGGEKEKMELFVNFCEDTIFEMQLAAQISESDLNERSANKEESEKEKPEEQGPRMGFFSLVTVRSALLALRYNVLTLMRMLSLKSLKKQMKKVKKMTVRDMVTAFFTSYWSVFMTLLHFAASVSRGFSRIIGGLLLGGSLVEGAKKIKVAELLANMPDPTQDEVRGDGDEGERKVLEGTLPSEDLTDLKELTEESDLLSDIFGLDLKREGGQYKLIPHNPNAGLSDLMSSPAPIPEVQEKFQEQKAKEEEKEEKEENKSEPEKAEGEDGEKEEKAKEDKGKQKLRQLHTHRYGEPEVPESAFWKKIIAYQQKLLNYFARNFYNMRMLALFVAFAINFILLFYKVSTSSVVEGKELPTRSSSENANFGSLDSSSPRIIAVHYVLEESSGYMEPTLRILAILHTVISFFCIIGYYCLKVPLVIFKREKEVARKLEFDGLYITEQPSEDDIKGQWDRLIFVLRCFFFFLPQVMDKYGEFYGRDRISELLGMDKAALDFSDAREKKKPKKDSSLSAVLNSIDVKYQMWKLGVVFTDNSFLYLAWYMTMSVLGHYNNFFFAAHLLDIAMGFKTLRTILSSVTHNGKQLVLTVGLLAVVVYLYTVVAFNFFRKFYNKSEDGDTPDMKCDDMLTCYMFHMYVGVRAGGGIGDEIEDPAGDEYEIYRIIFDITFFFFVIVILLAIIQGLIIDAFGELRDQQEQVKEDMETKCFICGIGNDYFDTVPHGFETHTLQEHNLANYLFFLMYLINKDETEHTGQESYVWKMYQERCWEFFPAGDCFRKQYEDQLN

Compound	dwell time of ryanodol-induced events (10 µM ryanodol + 1 µg/ml protamine + 250 µg/ml heparin) [s]	dwell time of ryanodol-induced events (10 µM ryanodol + 1 µg/ml protamine)	dwell time of ryanodol-induced events (10 µM ryanodol alone) [s]	substate current level as % of the current through the full open channel (Vm = 0 mV) [%]	substate current level as % of the full open current	slope conductance of the induced substate (I-V curve) [pS]	effect of IpTxA on RyR2 behavior when protamine is present (50 nM IpTxA + 1 µg/ml protamine, fully activated RyR2)	open probability (Po) after addition of heparin (250 µg/ml heparin after 1 µg/ml protamine, 100 nM cytosolic Ca2+, Vm = 20 mV, n = 5)	effect of subsequent heparin addition on protamine-modified RyR2 (250 µg/ml heparin after 20 µg/ml protamine, Vm = 0 mV)
CC(C)[C@@]1(O)[C@@H](O)[C@@]2(O)[C@@]3(C)C[C@]4(O)O[C@@]5([C@H](O)[C@@H](C)CC[C@]35O)[C@@]2(O)[C@]14C [ryanodol, Ryanodol]	3.4 ± 0.5	11 ± 3 s and 11.3 ± 2.5 s	3.7 ± 0.7	~45	same proportions	56±2	–	–	–
Imperatoxin A [IpTxA]	–	–	–	~33	same proportions	43±3	little or no effect	–	–
heparin	–	–	–	–	–	–	–	0.009±0.006	reversed the effect of protamine
